# What was measured:
# H2228 = assay: SRB antiproliferation assay; assay type: cell-based; details: Homo sapiens, NCI-H2228, 48 h, ALK-addicted cells, read-out: Antiproliferative activity (IC50) H2228
# VEGFR2 = target: T1, VEGFR2 (Homo sapiens, UniProt P35968); assay: RTK in vitro enzymatic assay; assay type: biochemical; details: 20 μM ATP
# T1 construct: purchased Reaction Biology Corporation
# c-Met = target: T2, c-Met (Homo sapiens, UniProt P08581); assay: RTK in vitro enzymatic assay; assay type: biochemical; details: 20 μM ATP
# T2 construct: purchased Reaction Biology Corporation
# T2 sequence (P08581 25-1390): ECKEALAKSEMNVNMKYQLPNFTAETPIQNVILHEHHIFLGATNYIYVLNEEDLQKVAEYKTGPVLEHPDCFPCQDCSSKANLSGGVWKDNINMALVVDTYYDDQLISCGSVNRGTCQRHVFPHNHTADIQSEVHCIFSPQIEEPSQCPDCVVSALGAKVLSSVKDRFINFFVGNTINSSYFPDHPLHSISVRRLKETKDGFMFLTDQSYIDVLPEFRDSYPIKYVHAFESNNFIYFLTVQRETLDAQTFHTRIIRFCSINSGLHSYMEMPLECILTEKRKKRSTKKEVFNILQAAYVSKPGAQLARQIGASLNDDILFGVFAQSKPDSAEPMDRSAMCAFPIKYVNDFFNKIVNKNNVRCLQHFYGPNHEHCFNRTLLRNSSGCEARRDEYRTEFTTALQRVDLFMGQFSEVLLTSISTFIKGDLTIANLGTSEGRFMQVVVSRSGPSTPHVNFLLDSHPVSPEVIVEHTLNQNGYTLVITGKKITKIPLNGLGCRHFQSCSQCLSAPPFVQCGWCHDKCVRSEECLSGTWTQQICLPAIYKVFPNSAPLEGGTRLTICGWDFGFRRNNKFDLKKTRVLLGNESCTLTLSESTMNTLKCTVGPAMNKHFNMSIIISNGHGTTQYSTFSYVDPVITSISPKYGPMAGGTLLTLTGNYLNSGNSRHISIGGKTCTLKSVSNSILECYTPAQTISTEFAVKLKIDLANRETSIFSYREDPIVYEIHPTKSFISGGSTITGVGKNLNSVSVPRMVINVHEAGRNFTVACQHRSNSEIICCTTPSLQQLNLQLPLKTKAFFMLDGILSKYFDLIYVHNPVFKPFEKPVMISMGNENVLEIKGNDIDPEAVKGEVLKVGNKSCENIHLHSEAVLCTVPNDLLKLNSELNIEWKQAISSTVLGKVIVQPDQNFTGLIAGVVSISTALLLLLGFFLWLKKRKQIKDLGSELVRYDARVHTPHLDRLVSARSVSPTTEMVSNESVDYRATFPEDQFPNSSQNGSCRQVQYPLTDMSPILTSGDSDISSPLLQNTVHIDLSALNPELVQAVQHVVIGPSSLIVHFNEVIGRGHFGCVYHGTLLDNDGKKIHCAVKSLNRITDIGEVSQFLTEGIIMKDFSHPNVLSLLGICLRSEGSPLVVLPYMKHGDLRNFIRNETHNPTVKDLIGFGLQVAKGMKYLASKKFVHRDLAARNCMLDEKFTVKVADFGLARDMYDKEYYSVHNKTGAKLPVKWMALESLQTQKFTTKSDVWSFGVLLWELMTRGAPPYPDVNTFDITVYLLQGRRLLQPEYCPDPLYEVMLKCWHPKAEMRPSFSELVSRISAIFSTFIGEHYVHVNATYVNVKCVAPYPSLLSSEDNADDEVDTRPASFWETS
# [1] = tested on: phosphorylation level of Y1604 on ALK; assay: Western blot of ALK phosphorylation in H2228 cells; assay type: cell-based, human; details: 6 h, 3b 2 µM, 3c 4 µM
# Description: (§1) Figure 4. Effect of test compounds on H2228 cells. […] (A) Western blots of phosphorylated tyrosine residue 1640 on ALK as well as acetylated (Ac) α-tubulin and histone H3 with their corresponding total proteins for normalisation. GAPDH was used as a loading control. (B) Quantification of western blotting results using Image J. Error bars indicate ± S.D.E. *p-Value ≤ 0.05, **p-value ≤ 0.01, ***p-value ≤ 0.001.
# (§2) Treated cells were washed three times with ice-cold phosphate-buffered saline and lysed in lysis buffer containing 100 mM Tris-HCl, 12 mM sodium deoxycholate, 12 mM sodium lauroylsarcosinate, and protease inhibitor cocktail (BioTools). Cells were heated in lysis buffer at 95 °C for 5 min and then the cell membrane was broken up by sonication (Bioruptor). Cellular debris and unbroken cells were removed by centrifugation (12,500 × g for 30 min, 4 °C). Protein concentration was determined using the bicinchoninic acid assay (Thermo). Cell extracts (20 μg) were resolved by 12% sodium dodecyl sulfate-polyacrylamide gel electrophoresis (SDS-PAGE), transferred to PVDF membranes, and probed separately with antibodies for Ac-histone H3, Ac-α-tubulin, histone H3, α-tubulin, HDAC1, HDAC6, HDAC8 and GAPDH. The antibodies of GAPDH, HDAC1, and HDAC8 were purchased from ABclonal and all other antibodies were from Cell Signalling Technology. Antibody signals were detected using an enhanced chemiluminescence system.
# [2] = tested on: acetylation level of α-tubulin, a substrate of HDAC6; assay: Western blot of acetylated α-tubulin in H2228 cells; assay type: cell-based, human; details: 6 h, 3b 2 µM
# Description: as §1
# as §2, with “The antibodies of GAPDH, HDAC1, and HDAC8 were purchased from ABclonal and all other antibodies were from Cell Signalling Technology.” left out
# [3] = tested on: acetylated histone H3, a substrate of class I HDAC; assay: Western blot of acetylated histone H3 in H2228 cells; assay type: cell-based, human; details: 6 h, 3b 2 µM
# Description: as §1
# as §2, with “The antibodies of GAPDH, HDAC1, and HDAC8 were purchased from ABclonal and all other antibodies were from Cell Signalling Technology.” left out
# T1 sequence (P35968 20-1356): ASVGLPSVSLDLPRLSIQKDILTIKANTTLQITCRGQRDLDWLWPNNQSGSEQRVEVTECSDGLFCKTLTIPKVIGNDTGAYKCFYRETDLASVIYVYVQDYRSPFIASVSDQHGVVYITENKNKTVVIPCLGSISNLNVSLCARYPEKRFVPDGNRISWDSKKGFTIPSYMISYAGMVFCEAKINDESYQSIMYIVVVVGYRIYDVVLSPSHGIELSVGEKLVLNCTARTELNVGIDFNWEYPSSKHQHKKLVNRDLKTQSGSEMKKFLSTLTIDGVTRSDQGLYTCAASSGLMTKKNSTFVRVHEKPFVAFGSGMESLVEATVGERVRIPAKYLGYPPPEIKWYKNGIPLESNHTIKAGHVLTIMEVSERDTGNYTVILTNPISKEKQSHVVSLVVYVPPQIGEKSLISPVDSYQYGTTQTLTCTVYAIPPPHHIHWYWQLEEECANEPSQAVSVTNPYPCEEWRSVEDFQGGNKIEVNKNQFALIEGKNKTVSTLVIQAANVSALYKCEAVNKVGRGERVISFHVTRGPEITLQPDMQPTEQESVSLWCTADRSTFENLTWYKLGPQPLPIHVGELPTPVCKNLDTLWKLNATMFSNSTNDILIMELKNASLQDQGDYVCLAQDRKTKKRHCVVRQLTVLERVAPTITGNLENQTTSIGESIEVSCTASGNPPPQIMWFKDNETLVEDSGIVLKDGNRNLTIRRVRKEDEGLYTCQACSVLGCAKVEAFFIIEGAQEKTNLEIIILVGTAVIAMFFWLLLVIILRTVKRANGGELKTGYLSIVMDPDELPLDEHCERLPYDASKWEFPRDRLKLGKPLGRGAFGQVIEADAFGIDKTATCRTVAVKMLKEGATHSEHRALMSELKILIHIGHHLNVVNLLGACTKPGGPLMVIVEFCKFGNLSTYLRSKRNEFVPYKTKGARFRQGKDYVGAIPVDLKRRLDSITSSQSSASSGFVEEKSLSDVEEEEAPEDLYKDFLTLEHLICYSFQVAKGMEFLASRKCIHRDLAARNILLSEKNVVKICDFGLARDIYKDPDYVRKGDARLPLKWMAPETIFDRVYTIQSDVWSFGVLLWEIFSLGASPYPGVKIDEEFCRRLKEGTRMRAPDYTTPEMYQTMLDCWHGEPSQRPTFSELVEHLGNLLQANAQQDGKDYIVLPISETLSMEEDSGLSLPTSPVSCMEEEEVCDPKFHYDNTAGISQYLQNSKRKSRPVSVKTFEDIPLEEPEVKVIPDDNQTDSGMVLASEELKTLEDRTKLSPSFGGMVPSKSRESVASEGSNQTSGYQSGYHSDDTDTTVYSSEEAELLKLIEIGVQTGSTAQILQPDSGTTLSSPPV
smiles,measurement,setting,value
"CC(C)NC(=O)C1CCC(n2c(=NC(=O)c3ccccc3)[nH]c3cc(C=CC(=O)NO)ccc32)CC1 [Compound 3b, (E)-N-(5-((E)-3-(Hydroxyamino)-3-oxoprop-1-en-1-yl)-1-((1S,4S)-4-(isopropylcarbamoyl)cyclohexyl)-1H-benzo[d]imidazol-2(3H)-ylidene)benzamide]",IC50,H2228,440 ± 60 nM
same,IC50,VEGFR2,> 10 µM
same,IC50,c-Met,> 10 µM
same,phosphorylation level of Y1604 on ALK,[1],significantly decreased
same,acetylation level of α-tubulin,[2],obviously elevated
same,acetylated histone H3 level,[3],slightly increased

# Source: PMC10930102 (Journal of Enzyme Inhibition and Medicinal Chemistry, 2024)
